Among the data in patent publication US6429222B2, “1-(p-thienylbenzyl)imidazoles as agonists of angiotensin (1-7) receptors, processes for their preparation, their use, and pharmaceutical preparations comprising them” (priority 1999, dated 2002) are heart rate, Coronary flow and platelet aggregation values, retold here.

Assay [1] concerns isolated, working rat hearts. The assay is described as follows: Test 3: Isolated, working rat hearts (Langendorff), coronary flow. The note with it: 10^−6 mol/l; for Coronary flow: treated hearts, n=4. Details: species or system Wistar-Kyoto rats. The source says: Pharmacol. 8 (Suppl. 10) (1986) S91-S99.
Test 3: Isolated, working rat hearts
Isolated hearts of Wistar-Kyoto rats (280-300 g body weight) are perfused with a constant perfusion pressure of 60 mmHg according to the method of Langendorff using an oxygen-saturated (95% O2, 5% CO2), nonrecirculating, modified Krebs-Henseleit buffer solution (118 mmol/l of NaCl, 4.7 mmol/l of KCl, 2.5 mmol/l of CaCl2, 1.6 mmol/l of MgSO4, 24.9 mmol/l of NaHCO3, 1.2 mmol/l of KH2PO4, 5.5 mmol/l of glucose, and 2.0 mmol/l of sodium pyruvate). For the measurement of the coronary flow, a catheter having an electromagnetic measuring head placed in the pulmonary artery was used. After a 15-minute equilibration period, the heart is converted into the working mode, in which a preload of 15 mmHg and an afterload of 60 mmHg is set. The working load of the heart remains constant during the entire test time of 90 minutes. Flow and pressure signals for the analysis are recorded by means of a PLUGSYS measuring system (Hugo Sachs Elektronik). The analysis of the data is carried out at a collection frequency of 500 Hz, averaged every 2 seconds, using the software Aquire Plus VI.21f (PO-NE-MAH).

For assay [2], the system named is human platelet-rich plasma. As to the kind of experiment: Test 4: Collagen-induced platelet aggregation in human platelet-rich plasma. Type of assay: cell-based. The settings on record: collagen + 30 μM compound, 37° C., 20 min incubation, n=6; collagen alone 92±2.7%. The procedure:
The action of compounds of formula (I) on collagen-induced platelet aggregation was investigated in human platelet-rich plasma, which is described, for example, in G.V. Born et al., Nature (1962).
Human platelet-rich plasma (PRP) from 6 blood donors was incubated with the test compound at 37° C. for 20 min, then activated with collagen, and the maximal aggregation of the platelets was quantified in % via light transmission.

For `CCCCOC(=O)NS(=O)(=O)c1sc(CC(C)C)cc1-c1ccc(Cn2c(-c3ccccc3)nc(OC)c2C=O)cc1` [Example 2, 5-Formyl-4-methoxy-2-phenyl-1-[[4-[2-(n-butyloxycarbonylsulfonamido)-5-isobutyl-3-thienyl]phenyl]methyl]imidazole], in assay [1] (during the entire experiment), the heart rate entry is recorded as “unchanged”. Also, the Coronary flow was 8.92 ± 0.68 mL/min in assay [1] (time 0 min), 11.29 ± 0.90 mL/min in assay [1] (time 5 min), 12.17 ± 0.74 mL/min in assay [1] (time 10 min) and 12.22 ± 0.10 mL/min in assay [1] (time 15 min). Besides, the platelet aggregation in assay [2] is 52±5.7 % aggregation.
